Tests used:
Format in all cases: cell-based, human
[1] = test system: TFF1 promoter; experiment: TFF1 promoter activity in MCF7 cells treated with E2 or TAM; details: 24 hours treatment, FIG. 9B
Procedure: (§1) MCF7 cells produce endogenous levels of TFF1. MCF7 cells were cultured in phenol red free RPMI 1640 containing 10% dextran coated charcoal stripped fetal bovine serum in a 6 well plate for 24 hours. Then the cells were changed to treatment media containing 10 nM E2 or 1 μM TAM and cultured for 24 hours in the same. Untreated cells cultured in serum free media acted as controls.

[2] = test system: TFF3 promoter; experiment: TFF3 promoter activity in MCF-7 cells treated with E2 or TAM; details: 24 hours treatment, FIG. 7B, p<0.05
Procedure: as §1, with “It was” for “MCF7 cells produce endogenous levels”, “interest to determine if the expression of TFF3 is related to estrogen receptor status.” for “TFF1.”

[3] = test system: MCF-TFF3 cells; experiment: Soft agar colony formation in estrogen-depleted media with estrogen added; details: estrogen added to estrogen-depleted media, MCF-TFF3, FIG. 10B
Procedure: (§2) MCF7-VECTOR and MCF7-TFF3 cells were cultured in phenol red free RPMI 1640 media with 10% dextran coated charcoal stripped fetal bovine serum.

[4] = test system: MCF7-VECTOR and MCF7-TFF3 cells; experiment: Total cell number assay in estrogen-depleted media with estrogen supplement; details: estrogen supplemented to estrogen-depleted media, FIG. 10A
Procedure: as §2

[5] = test system: TFF3; experiment: TFF3 transcript levels (RT-PCR) in MCF7 cells treated with E2 or TAM; details: 10 nM E2 or 1 μM TAM, 24 hours, FIG. 7A
Procedure: RT-PCR was performed in a final volume of […] containing 0.2 μg of mRNA template, 0.6 μM primers, […] of enzyme mix, 400 μM of each dNTP, 10 reaction buffer, and 10 Q-Solution by use of the Qiagen One-step RT-PCR kit. RNA template was reverse-transcribed into cDNA for 30 min at 50° C.; Hotstart TaqDNA polymerase was activated by heating for 15 min at 95° C.; the denatured cDNA templates were amplified by the following cycles: 94° C./30 s, 55° C./30 s, and 72° C./60 s. A final extension was performed for 10 min at 72° C. In order to compare the PCR products semiquantitatively, 15-40 cycles of PCR (annealing temperature 55° C.) were performed to determine the linearity of the PCR amplification, and the amplified β-actin cDNA served as an internal control for cDNA quantity and quality. All RNA samples were treated with DNase I to avoid genomic DNA contaminations.
as §1, with “It was” for “MCF7 cells produce endogenous levels”, “interest to determine if the expression of TFF3 is related to estrogen receptor status.” for “TFF1.”

[6] = test system: TFF1; experiment: TFF1 transcript levels (RT-PCR) in MCF7 cells treated with E2 or tamoxifen; details: 10 nM E2 or 1 μM TAM, 24 hours, FIG. 9A
Procedure: as §1

[7] = test system: MCF-7-TamR cells; experiment: Cell morphology assay, MCF-7-TamR cells; details: single agent, 48 h, FIG. 19
Procedure: Tamoxifen resistant MCF-7-Tam^R cells were plated at a concentration of 5×10^3 cells/well in 96-well plates in 100 μl of phenol red free RPMI 1640 medium containing dextran coated charcoal stripped 10% FBS. The plates were incubated at 37° C. for 24 h to allow the cells to reattach and re-equilibrate. Without removing any medium, anti-TFF3 antibody and/or tamoxifen were then added at twice the final concentration in a volume of 100 μl of the culture media. After 48 h images of cells were taken at 10× magnification under phase contrast microscope (Olympus IX70).
Cells were plated in phenol red free RPMI 1640 medium containing dextran coated charcoal stripped 10% FBS at 5×10^3 cells/100 μl/well in 96-well plates. After 24 hours incubation, anti-TFF3 antibody and/or tamoxifen (TAM) were then added at twice the final concentration in a volume of 100 μl. The cells were then taken photos using Olympus phase contrast microscope under 10× magnification. CK-09 is the pre-immune sera for the rabbit polyclonal antibodies of human TFF3 (anti-09).

[8] = test system: CEACAM6 gene; experiment: CEACAM6 luciferase reporter assay in MCF-7 cells; details: MCF-7 co-transfected with expression plasmid, 36 hours post transfection

Compound	TFF1 promoter activity [1]	TFF3 promoter activity [2]	soft agar colony numbers [3]	total cell number [4]	transcript levels of TFF3 [5]	transcript levels of TFF1 [6]	cell morphology / cell death [7]	stimulation of CEACAM6 expression compared with control vector [8]
C[C@]12CC[C@@H]3c4ccc(O)cc4CC[C@H]3[C@@H]1CC[C@@H]2O [E2, estradiol]	increase	increase	further increases the colony numbers significantly	brings back the total cell number to the control cells	very high increased transcript levels	very significant increase	–	–
CC/C(=C(\c1ccccc1)c1ccc(OCCN(C)C)cc1)c1ccccc1 [TAM, tamoxifen]	increase	increase	–	–	significantly but not as high transcript levels	very significant increase	look healthy and similar to untreated control	–
TFF3: wild type human TFF3 expressed from plasmid in MCF-7 cells (EEYVGLSANQCAVPAKDRVDCGYPHVTPKECNNRGCCFDSRIPGVPWCFKPLQEAECTF)	–	–	–	–	–	–	–	two fold

From US20100129370A1, “Trefoil Factors and Methods of Treating Proliferation Disorders Using Same” (priority 2004, published 2010)
